Data reported in patent US20040121947A1, “Compounds which inhibit beta-secretase activity and methods of use thereof” (Oklahoma Medical Research Foundation, priority 2000, published 2004).
Like-named read-outs stand apart in the source and are kept apart here.

Target: T1, memapsin 2 (Homo sapiens, UniProt P56817)
T1 construct: pET-11 vector-derived residues 1-15 of promemapsin 2-T1 (N, cleaved yes); made in house; host or cells: E. coli
Assay: Inhibition of memapsin 2 proteolytic activity, fluorogenic substrate FS-2
Type: biochemical
Settings: for Ki / Ki app: memapsin 2; for Vi/Vo: ratio of initial cleavage velocities of FS-2 with/without compound, enzyme and inhibitor concentrations equal (e.g., about 80 nM, 100 nM)
Experimental: Ki is the inhibition equilibrium constant which indicates the ability of compounds to inhibit the β-secretase activity of memapsin 2 and memapsin 1. […] The K1 value is independent of the substrate, and converted from Ki apparent.
The Vi/Vo values depicted in Table 1 were determined at conditions under which the enzyme and inhibitor concentrations were equal (e.g., about 80 nM, 100 nM).
The relationship of Ki (independent of substrate concentration) to Kiapp is a function of substrate concentration in the assay and the Km for cleavage of the substrate by either memapsin 1 or memapsin 2 by the relationship:
The spontaneously activated memapsin 2 was employed in assays to assess the inhibition of memapsin 2 relative to memapsin 1 by compounds of the invention and in some crystallization studies.
An aliquot of the inhibitor of known concentration in DMSO was diluted into 1.8 ml 0.1 M NaOAc, pH 4.0. DMSO and added to a final concentration of 10% (v/v), and memapsin 2 (final concentration of 80 nM), followed by a 20 minute equilibration at 37° C. Compounds were evaluated for the ability to inhibit memapsin 1 and memapsin 2 at concentrations between about 10 nM and about 10 μm of inhibitor.

[1] = apparent Ki in presence of substrate FS-2, read-out: Ki app
[2] = independent of substrate, converted from Ki apparent, read-out: Ki
[3] = apparent Ki in presence of substrate FS-2
[4] = independent of substrate, converted from Ki apparent

T1 sequence (P56817 41-454 limits assumed): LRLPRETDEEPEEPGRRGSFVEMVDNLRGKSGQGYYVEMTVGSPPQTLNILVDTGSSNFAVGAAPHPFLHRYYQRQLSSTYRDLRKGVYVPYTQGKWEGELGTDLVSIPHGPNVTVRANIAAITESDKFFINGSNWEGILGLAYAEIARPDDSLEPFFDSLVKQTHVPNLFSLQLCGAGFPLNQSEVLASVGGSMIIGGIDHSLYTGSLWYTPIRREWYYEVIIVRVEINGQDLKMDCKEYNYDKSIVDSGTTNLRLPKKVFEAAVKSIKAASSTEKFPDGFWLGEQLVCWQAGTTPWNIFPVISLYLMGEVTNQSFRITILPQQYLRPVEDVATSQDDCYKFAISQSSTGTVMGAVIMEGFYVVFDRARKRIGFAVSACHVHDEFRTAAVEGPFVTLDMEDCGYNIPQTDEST

| Compound | Ki [1] [µM] | Ki [2] [µM] | Vi/Vo | Ki app [3] | Ki [4] |
| --- | --- | --- | --- | --- | --- |
| CSCCC(NC(=O)[C@H](CC(C)C)NC(=O)OC(C)(C)C)C(=O)N[C@@H](CC(C)C)[C@@H](O)C[C@@H](C)C(=O)N[C@@H](CC(C)C)C(=O)NCc1ccccc1 (stereo partly drawn) [MMI-097] | 0.0828 | 0.0517 |  |  |  |
| CC(C)C[C@H](NC(=O)[C@H](CCO)NC(=O)c1cnc2ccccc2c1)[C@@H](O)C[C@@H](C)C(=O)N[C@H](C(=O)N[C@H]1c2ccccc2C[C@H]1O)C(C)C [MMI-049] |  | 124 |  |  |  |
| CSCC[C@H](NC(=O)NCc1ccco1)C(=O)N[C@@H](CC(C)C)[C@@H](O)C[C@@H](C)C(=O)N[C@H](C(=O)NCc1ccccc1)C(C)C [MMI-117] |  |  | 0.57 |  |  |
| CSCC[C@H](NC(=O)[C@H](CC(C)C)NC(C)=O)C(=O)N[C@@H](CC(C)C)[C@@H](O)C[C@@H](C)C(=O)N[C@H](C(=O)NCc1ccccc1)C(C)C [MMI-094] | 0.0641 | 0.0401 |  |  |  |
| CSCC[C@H](NC(=O)[C@@H](NC(=O)OC(C)(C)C)C(C)C)C(=O)N[C@@H](CC(C)C)[C@@H](O)C[C@@H](C)C(=O)N[C@@H]1CCCC[C@@H]1O [MMI-057] | 73.3 | 45.8 |  |  |  |
| CSCC[C@@H](NC(=O)[C@H](CC(C)C)NC(=O)OC(C)(C)C)C(=O)N[C@@H](CC(C)C)[C@@H](O)C[C@@H](C)C(=O)N[C@H](C(=O)NCc1ccccc1)C(C)C [MMI-104] | 0.831 | 0.52 |  |  |  |
| CCCCNC(=O)[C@@H](NC(=O)[C@H](C)C[C@H](O)[C@H](CC1CCC1)NC(=O)[C@H](CCSC)NC(=O)OCn1nc(C)cc1C)C(C)C [MMI-178] | 0.0245 | 0.0153 | 0.69 |  |  |
| CSCC[C@H](NC(=O)[C@@H](NC(=O)OC(C)(C)C)C(C)C)C(=O)N[C@@H](CC(C)C)[C@@H](O)C[C@@H](C)C(=O)N[C@@H](C(C)C)C1CCCCO1 (stereo partly drawn) [MMI-130] |  | 68.6 |  |  |  |
| CSCC[C@H](NC(=O)[C@@H](NC(=O)OC(C)(C)C)C(C)C)C(=O)N[C@@H](CC(C)C)[C@@H](O)CN(C)C(=O)[C@H](NC(=O)OCc1ccccc1)C(C)C [MMI-061] |  | 9660 |  |  |  |
| CSCC[C@H](NC(=O)[C@@H](NC(=O)OC(C)(C)C)C(C)C)C(=O)N[C@@H](CC(C)C)[C@@H](O)C[C@@H](C)C(=O)N[C@H](COCc1ccccc1)C(C)C [MMI-041] |  |  |  | N.I. | N.I. |
| CC(C)C[C@H](NC(=O)[C@@H]1CC(=O)NCCCCOC(=O)N[C@@H](C(C)C)C(=O)N1)[C@@H](O)C[C@@H](C)C(=O)N[C@H](C(=O)NCc1ccccc1)C(C)C [MMI-150] |  |  | 0.8 |  |  |
| CSCC[C@H](NC(=O)[C@H](CC(C)C)NC(=O)OC(C)(C)C)C(=O)N[C@@H](CC(C)C)[C@@H](O)C[C@@H](C)C(=O)N[C@H](C(=O)NCc1ccco1)C(C)C [MMI-161] | 0.00068 | 0.00043 | 0.06 |  |  |
| CC(C)C[C@H](NC(=O)[C@@H](NC(=O)[C@@H](NC(=O)OC(C)(C)C)C(C)C)[C@@H]1CCOC1)[C@@H](O)C[C@@H](C)C(=O)N[C@H](C(=O)NCc1ccccc1)C(C)C [MMI-020] | 1.61 | 1 |  |  |  |
| CC(C)C[C@H](NC(=O)[C@@H]1CC(=O)NC/C=C\COC(=O)N[C@@H](C(C)C)C(=O)N1)[C@@H](O)C[C@@H](C)C(=O)N[C@H](C(=O)NCc1ccccc1)C(C)C [MMI-149] |  |  | 0.66 |  |  |
| CSCC[C@H](NC(=O)[C@@H](NC(=O)OC(C)(C)C)C(C)C)C(=O)N[C@@H](CC(C)C)[C@@H](O)C[C@@H](C)C(=O)N[C@H]1CCCC[C@@H]1O [MMI-051] |  |  |  | N.I. | N.I. |
| CCC[C@H](C[C@H](O)[C@H](CC(C)C)NC(=O)[C@H](CSC)NC(=O)O[C@@H]1C[C@@H]2CCO[C@@H]2C1)C(=O)N[C@H](C(=O)NCc1ccccc1)C(C)C [MMI-027] | 11.5 | 7.22 |  |  |  |
| CSCC[C@H](NC(=O)OCc1cccnc1)C(=O)N[C@@H](Cc1ccccc1)[C@@H](O)C[C@@H](C)C(=O)N[C@H](C(=O)NCc1ccccc1)C(C)C [MMI-040] | 2.07 | 1.29 |  |  |  |
| CCC[C@H](C[C@H](O)[C@H](CC(C)C)NC(=O)[C@H](CSC)NC(=O)O[C@H]1CCOC1)C(=O)N[C@H](C(=O)NCc1ccccc1)C(C)C [MMI-029] | 1.7 | 1.06 |  |  |  |
| CC(C)C[C@H](NC(=O)[C@H](CCS(C)(=O)=O)NC(=O)[C@@H](NC(=O)OC(C)(C)C)C(C)C)[C@@H](O)C[C@@H](C)C(=O)N1CCC[C@H]1C(=O)NCc1ccccc1 [MMI-045] |  |  |  | N.I. | N.I. |
| CC(C)C[C@H](NC(=O)[C@H](CCS(C)(=O)=O)NC(=O)[C@@H](NC(=O)OC(C)(C)C)C(C)C)[C@@H](O)C[C@@H](C)C(=O)N[C@H](C(=O)NCc1cccnc1)C(C)C [MMI-088] | 1.03 | 0.646 |  |  |  |
